{
  "source": "patent US20040096899A1",
  "about": "“Immunoassay method for membrane-bound matrix metalloprotease” (priority 2000, published 2004)",
  "key": {"[1]": {"biological_target": "T1, MT1-MMP sandwich EIA (solid-phase antibody 222-2D12, labeled antibody 222-1D8) (Homo sapiens, UniProt P50281)", "T1 construct": "488 amino acid residues of Δ MT1-MMP (G^48 to G^53) which lacks the signal peptide and part of the propeptide region; made in house; host or cells: E. coli", "experiment": "Specificity test: cross reactivity on MT1-MMP sandwich EIA", "format": "binding", "settings": "concentration 1 μg/mL; blank 0.027", "description": "Monoclonal antibodies (e.g., 333-2D12 (IgG)) were dissolved in 0.1 M phosphate buffer, pH 7.0 to a concentration of 25 μg/mL. The monoclonal antibody solution was added to each well of a 96-well microwell (Maxisorp; Nunc-Immuno Module) at 100 μL per well and allowed to stand at 4° C. for 24 hrs. […] The solid-phase antibodies were preserved at 4° C.\nStandard antigens or samples to be assayed were dispensed into a 96-well vinyl plate at 25 μL each. To each well was added a dilution buffer in aliquots of 100 μL, followed by mixing. An aliquot (100 μL) of the resultant mixture was taken out, dispensed into an antibody-solid phased plate from which a blocking solution was removed by washing. The plate was then allowed to stand at 4° C. for 16 hours.\n[…] antibody 222-1D8 (Fab′-HRP) was diluted with a blocking solution to a concentration of 0.4 μg/mL. The reaction solution was removed from the antibody-solid phased plate where the primary reaction was completed. The plate was washed with a washing liquid three times and an aliquot (100 μL) of the labeled antibody solution was added to each well. The plate was allowed to stand at room temperature for 1 hour.\nAfter completion of the reaction, the labeled antibody solution was removed. The plate was then washed with a washing liquid three times, and a TMB solution (CALBIOCHEM) was added to each well at 100 μL. The mixture was allowed to react at room temperature for 20 minute. The reaction was stopped with the addition of 2 N sulfuric acid at 100 μL per well. The reaction mixture was measured for A450 with a microplate reader (MPR-A4; Tosoh).\nEach of MMP-1, -2, -3, -4, -7, -8, -9, -13, -19 and -20 was prepared to give a concentration of 1 μg/mL, and subjected to MT1-MMP sandwich EIA. A450 was measured. When MT1-MMP was subjected to sandwich EIA at 0.16 μg/mL, the absorbance was 2.206. However, when the above MMPs were subjected, their absorbances were only an extent of 0.024 to 0.071. Accordingly, it has been verified that MT1-MMP sandwich EIA is specifically reactive with MT1-MMP."}, "[2]": {"system": "CaSki (cervical epidermoid cancer)", "experiment": "MT1-MMP sandwich EIA of cultured cell line with Con A", "format": "cell-based, Human", "settings": "Con A-containing serum-free medium 48 hours", "description": "(§1) Searches for Human MT1-MMP-producing culture cell lines were carried out by means of MT1-MMP sandwich EIA. With regard to the cell lines, there were used Burkitt's lymphoma (Daudi, Namalwa, Raji), acute lymphoblastic leukemia (T-cells) (MOLT-4), chronic myelogenous leukemia (K-562), promyelocytic leukemia (HL-60), fibrosarcoma (HT-1080), breast cancer (MDA-MB-231, SK-BR-3, MCF 7), lung cancer (A 549), rectal adenocarcinoma (SW 837), osteosarcoma ([…]), lingual squamous cell carcinoma (SSC-25), uterocervical cancer (HeLa), cervical epidermoid cancer (CaSki), prostatic cancer (PC-3) and malignant melanoma (A-375) cells. Each of the cancer cell lines was incubated in a plate of 10 cm diameter until being confluent, the medium was exchanged with serum-free medium or Con A-containing serum-free medium and, after 48 hours, the culture supernatant and the cells were recovered. The cells were ultrasonically disrupted in 0.5 mL of dilution buffer and centrifuged. The resulting supernatant was subjected to EIA as a cell extract fraction. The culture supernatant was subjected to EIA as it was."}, "[3]": {"system": "SSC-25 (lingual squamous cell carcinoma)", "experiment": "MT1-MMP sandwich EIA of cultured cell line with Con A", "format": "cell-based, Human", "settings": "SSC-25, Con A-containing serum-free medium 48 hours", "description": "as §1"}, "[4]": {"system": "SW 837 (rectal adenocarcinoma)", "experiment": "MT1-MMP sandwich EIA of cultured cell line with Con A", "format": "cell-based, Human", "settings": "SW 837, Con A-containing serum-free medium 48 hours", "description": "as §1"}, "MG-63 (osteosarcoma)": {"system": "MG-63 (osteosarcoma)", "experiment": "MT1-MMP sandwich EIA of cultured cell line with Con A", "format": "cell-based, Human", "settings": "MG-63, Con A-containing serum-free medium 48 hours", "description": "as §1"}, "HT-1080 (fibrosarcoma)": {"system": "HT-1080 (fibrosarcoma)", "experiment": "MT1-MMP sandwich EIA of cultured cell line with Con A", "format": "cell-based, Human", "settings": "HT-1080, Con A-containing serum-free medium 48 hours", "description": "as §1"}, "[5]": {"system": "MDA-MB-231 (breast cancer)", "experiment": "MT1-MMP sandwich EIA of cultured cell line with Con A", "format": "cell-based, Human", "settings": "MDA-MB-231, Con A-containing serum-free medium 48 hours", "description": "as §1"}},
  "data": [
    {"substance": "MMP-3: matrix metalloproteinase subjected to MT1-MMP sandwich EIA for cross reactivity", "values": [
      {"measurement": "A450", "setting": "[1]", "value": 0.027}
    ]},
    {"substance": "MMP-7: matrix metalloproteinase subjected to MT1-MMP sandwich EIA for cross reactivity", "values": [
      {"measurement": "A450", "setting": "[1]", "value": 0.026}
    ]},
    {"substance": "MMP-8: matrix metalloproteinase subjected to MT1-MMP sandwich EIA for cross reactivity", "values": [
      {"measurement": "A450", "setting": "[1]", "value": 0.028}
    ]},
    {"substance": "concanavalin A [Con A]", "values": [
      {"measurement": "MT1-MMP in Culture Supernatant, +Con A", "setting": "[2]; −Con A 1.7", "value": 25.1},
      {"measurement": "MT1-MMP in Cell Extract Fraction, +Con A", "setting": "[2]; −Con A 9.0", "value": 9.5},
      {"measurement": "MT1-MMP in Culture Supernatant, +Con A", "setting": "[3]; −Con A 2.8", "value": 43.1},
      {"measurement": "MT1-MMP in Cell Extract Fraction, +Con A", "setting": "[3]; −Con A 5.9", "value": 19.1},
      {"measurement": "MT1-MMP in Culture Supernatant, +Con A", "setting": "[4]; −Con A 1.8", "value": 14.2},
      {"measurement": "MT1-MMP in Cell Extract Fraction, +Con A", "setting": "[4]; −Con A 21.5", "value": 30.7},
      {"measurement": "MT1-MMP in Cell Extract Fraction, +Con A", "setting": "MG-63 (osteosarcoma); −Con A 0.7", "value": 0.0},
      {"measurement": "MT1-MMP in Culture Supernatant, +Con A", "setting": "MG-63 (osteosarcoma); −Con A 1.6", "value": 20.3},
      {"measurement": "MT1-MMP in Culture Supernatant, +Con A", "setting": "HT-1080 (fibrosarcoma); −Con A 10.1", "value": 80.3},
      {"measurement": "MT1-MMP in Cell Extract Fraction, +Con A", "setting": "HT-1080 (fibrosarcoma); −Con A 45.9", "value": 42.6},
      {"measurement": "MT1-MMP in Culture Supernatant, +Con A", "setting": "[5]; −Con A 7.6", "value": 48.8},
      {"measurement": "MT1-MMP in Cell Extract Fraction, +Con A", "setting": "[5]; −Con A 42.8", "value": 85.0}
    ]}
  ]
}
